Reference: US20240368655A1, “CLICK HANDLE-MODIFIED DEOXY-FLUOROARABINO NUCLEIC ACID AS A SYNTHETIC GENETIC POLYMER CAPABLE OF POST-POLYMERIZATION FUNCTIONALIZATION” (THE TRUSTEES OF BOSTON COLLEGE, priority 2023, published 2024)
Entries after “also recorded” stand apart in the source; their conditions may differ.

Target: T1, Thermococcus gorgonarius (Tgo) DNA polymerase (Thermococcus gorgonarius, UniProt P56689)
T1 construct: made in house
T1 sequence (P56689 1-773): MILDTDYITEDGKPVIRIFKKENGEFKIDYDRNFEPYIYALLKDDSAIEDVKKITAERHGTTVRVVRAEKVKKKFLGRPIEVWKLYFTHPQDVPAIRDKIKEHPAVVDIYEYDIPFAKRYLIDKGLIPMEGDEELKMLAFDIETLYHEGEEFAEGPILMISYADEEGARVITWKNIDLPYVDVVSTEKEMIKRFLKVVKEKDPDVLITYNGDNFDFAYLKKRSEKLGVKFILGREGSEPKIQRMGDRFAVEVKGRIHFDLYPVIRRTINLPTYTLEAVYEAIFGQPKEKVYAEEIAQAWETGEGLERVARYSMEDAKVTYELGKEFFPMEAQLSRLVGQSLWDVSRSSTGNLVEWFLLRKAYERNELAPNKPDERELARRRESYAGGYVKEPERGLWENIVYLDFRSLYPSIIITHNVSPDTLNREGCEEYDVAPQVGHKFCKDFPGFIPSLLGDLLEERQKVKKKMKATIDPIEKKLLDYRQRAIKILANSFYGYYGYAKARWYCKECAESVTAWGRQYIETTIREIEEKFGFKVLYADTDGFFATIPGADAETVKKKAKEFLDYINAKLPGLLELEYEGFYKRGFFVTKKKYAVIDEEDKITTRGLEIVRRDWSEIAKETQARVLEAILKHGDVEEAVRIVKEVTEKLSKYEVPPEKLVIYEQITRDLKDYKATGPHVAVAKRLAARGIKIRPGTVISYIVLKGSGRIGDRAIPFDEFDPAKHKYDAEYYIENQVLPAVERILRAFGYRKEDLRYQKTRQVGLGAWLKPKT
Assay: DNA-templated primer extension by Tgo DNA polymerase
Format: biochemical
Details: with FANA ATP, CTP, GTP, DNA primer-template complex
Description: It was hypothesized that Thermococcus gorgonarius (Tgo) DNA polymerase could tolerate the 5-1,7-octadiyne modification on uracil and that the enzyme could incorporate FANA nucleotides. To investigate the hypothesis, a primer extension experiment was performed, in which a DNA primer-template complex was enzymatically extended by Tgo DNA polymerase using commercially available FANA nucleotide triphosphates (A, C, and G) as well as C8-alkyne-FANA UTP 11. The DNA template was prepared to contain a 40-nucleotide (nt) random region to avoid sequence bias, as well as a 24-nt poly-AAC tail at the 3′-end, which would not be transcribed, to provide a mobility difference between extension product (76 nt) and DNA template (100 nt) in denaturing polyacrylamide gel electrophoresis (PAGE). The DNA primer was labeled by a 5′-Cy5 fluorophore to allow easy detection of the extended product. A control experiment in which all FANA nucleotide triphosphates comprising natural bases (A, C, G and T) was also conducted to determine the impact of the 5-1,7-octadiyne modification of uracil on the primer extension reactivity. Tgo DNA polymerase was added in various amounts to confirm that the generation of the extended products was mediated by the Tgo DNA polymerase in a dose-dependent fashion. […]

5-octa-1,7-diynyluracil 2′-deoxy-2′-fluoroarabino triphosphate [compound 11]
recognition and incorporation as substrate in primer extension: produced the full-length products in a polymerase dose-dependent fashion
recognition and incorporation as substrate in primer extension (listed as C8-alkyne-FANA UTP): successfully served as a substrate; also recorded: quantitatively incorporated
